Entries after “also recorded” stand apart in the source; their conditions may differ.

The subject of one experiment is DHT-induced AR-mediated PSA promoter-driven transcription in PC3-AR-FL-GFP cells. The experiment in a line: PSA promoter-driven transcription in PC3-AR-FL-GFP cells. In kind it is cell-based.
Conditions: not given
As to the method: Compounds 1-5 were assessed to determine whether each compound could block DHT-induced AR-TIF2 PPI (protein-protein interaction complex) formation and/or disrupt preformed DHT-induced AR-TIF2 PPIs. Additionally, the following activities were evaluated: • inhibition of DHT-induced AR-mediated PSA promoter-driven transcription in C4-2 CRPC cells; • inhibition of DHT-induced AR-LBD PPI interactions with TIF2 and SRC1 coactivators; • inhibition of DHT-induced AR-LBD PPI interactions with TIF2 Box III-LXXLL peptide; • inhibition of H^3-DHT binding to AR-LBD; • inhibition of DHT-induced AR-mediated PSA promoter-driven transcription in PC3-AR-FL-GFP cells; • inhibition of constitutive AR-V7-mediated PSA promoter-driven transcription in PC3-AR-V7 GFP cells; • inhibition of constitutive UBE2C promoter-driven transcription in PC3-AR-V7 GFP cells; • inhibition of growth in AR-negative prostate cancer (PCa) cell lines PC3 and DU145; and • inhibition of growth in AR-positive PCa cell lines LNCap, C4-2 (CRPC), and 22Rv1 (CRPC).
The compound `Cc1nsc(NC(=O)N2CCC(Sc3ccccc3C)CC2)n1` [Compound S2-6] showed an IC50 of approximately 28 µM.
On the same count and under the same terms, the value for `Cc1cccc2c(-c3ccc(O)c(F)c3)c[nH]c12` [Compound S3-17] was approximately 50 µM; that for `CNC(=O)c1ccc(-c2c[nH]c3c(C)cccc23)cc1` [Compound S3-21] was more than 100 µM.
Regarding `Cc1nc(N)cc(N2CCOc3c(O)cc(-c4ccccc4C)cc3C2)n1` [Compound S1-2], the IC50 was less than 44 µM.
In the case of `Cc1c(-c2ccccc2F)[nH]c2ccc(CNC(=O)CCc3cnccn3)cc12` [Compound S3-12], the IC50 was more than 100 µM.
For the compound `Cc1c(-c2ccccc2F)[nH]c2ccc(CNC(=O)c3ccc(CO)o3)cc12` [Compound S3-14], the IC50 is approximately 50 µM.

Another experiment addresses T1, AR (Homo sapiens, UniProt P10275, T878A).
T1 construct: the amount of soluble AR protein in heat shocked C4-2 cell lysates; endogenous in cells; host or cells: C4-2 castration resistant prostate cancer cells
T1 sequence (P10275 1-920 T878A): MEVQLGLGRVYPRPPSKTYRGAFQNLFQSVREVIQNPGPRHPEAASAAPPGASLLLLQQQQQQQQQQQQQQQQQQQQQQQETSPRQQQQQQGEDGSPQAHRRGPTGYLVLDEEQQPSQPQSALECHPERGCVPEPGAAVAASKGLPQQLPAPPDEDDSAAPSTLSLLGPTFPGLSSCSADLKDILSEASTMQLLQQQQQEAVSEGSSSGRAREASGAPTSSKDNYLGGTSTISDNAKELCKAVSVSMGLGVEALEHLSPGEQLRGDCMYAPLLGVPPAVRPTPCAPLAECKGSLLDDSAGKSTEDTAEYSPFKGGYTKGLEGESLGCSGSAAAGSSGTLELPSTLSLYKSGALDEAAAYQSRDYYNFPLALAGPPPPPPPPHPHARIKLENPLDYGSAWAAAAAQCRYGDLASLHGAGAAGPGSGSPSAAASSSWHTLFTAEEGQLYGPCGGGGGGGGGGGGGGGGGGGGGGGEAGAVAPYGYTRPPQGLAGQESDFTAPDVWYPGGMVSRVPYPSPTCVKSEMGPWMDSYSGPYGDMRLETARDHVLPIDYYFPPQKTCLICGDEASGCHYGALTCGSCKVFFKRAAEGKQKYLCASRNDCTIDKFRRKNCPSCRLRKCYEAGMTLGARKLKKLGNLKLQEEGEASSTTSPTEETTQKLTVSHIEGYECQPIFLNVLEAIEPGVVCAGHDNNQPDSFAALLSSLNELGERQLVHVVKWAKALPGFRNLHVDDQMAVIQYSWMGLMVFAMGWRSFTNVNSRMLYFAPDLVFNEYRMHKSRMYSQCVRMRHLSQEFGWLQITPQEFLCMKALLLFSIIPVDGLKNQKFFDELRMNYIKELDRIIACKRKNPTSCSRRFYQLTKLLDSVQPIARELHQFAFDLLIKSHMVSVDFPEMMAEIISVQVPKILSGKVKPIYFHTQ
The experiment in a line: AlphaScreen cellular thermal shift assay (CETSA) for AR target engagement in C4-2 cells. It counts as cell-based. The settings on record: 20 μM and 50 μM compound. As to the method: Mouse anti-hAR (BD Biosciences, San Jose, CA) and rabbit anti-hAR (MilliporeSigma, Burlington, MA) were diluted 1:330 and 1:1000 fold respectively in PBS containing 0.5 mg/mL BSA and 4 μL of the combined diluted AR antibody pair were added to 4 μL of the cell lysate supernatant in a 384-well plate and incubated in the dark for 30 min at room temperature. To each well of the 384-well plate 4 μL of a combined solution of anti-mouse IgG Alpha Donor and anti-rabbit IgG (Fc specific) AlphaLISA® Acceptor beads (Perkin Elmer, Waltham, MA) suspended in 1× lysis buffer was added to yield a final donor and acceptor bead concentrations of 40 μg/mL and 10 μg/mL respectively.
In the case of `Cc1nsc(NC(=O)N2CCC(Sc3ccccc3C)CC2)n1` [Compound S2-6], the “DHT-enhanced AR stability at 46° C.” value is reported as “inhibited DHT-enhanced AR stability”.
As for `Cc1cccc2c(-c3ccc(O)c(F)c3)c[nH]c12` [Compound S3-17], the “DHT-enhanced AR stability at 46° C.” value is given as “inhibited DHT-enhanced AR stability”.

The experiment is the same for the next values; noted with them: 20 or 50 μM compound.
As to `Cc1nsc(NC(=O)N2CCC(Sc3ccccc3C)CC2)n1` [Compound S2-6], the “Right shift of the DHT EC50” value is given as more than 10 fold.

The experiment is the same for the next values; noted with them: C4-2 cells, 20 μM where stated, 46° C. for 5 min.
Consider `Cc1nsc(NC(=O)N2CCC(Sc3ccccc3C)CC2)n1` [Compound S2-6], for which the “AR thermal stability at 46° C., compound alone” value is given as “did not stabilize AR”.

The experiment is the same for the next values; noted with them: C4-2 cells, 20 μM where stated, 46° C. for 5 min; listed as 6.
Take `Cc1nsc(NC(=O)N2CCC(Sc3ccccc3C)CC2)n1` [Compound S2-6]: the “AR thermal stability at 46° C., compound alone” value was “did not enhance AR stability”.

The experiment is the same for the next values; noted with them: C4-2 cells, compound 20 μM where stated, 10 nM DHT.
With `Cc1nsc(NC(=O)N2CCC(Sc3ccccc3C)CC2)n1` [Compound S2-6], the “DHT-induced (DHT-enhanced) AR thermal stability at 46° C.” value is “blocked DHT-enhanced AR thermal stabilization; also recorded: inhibition of DHT-enhanced AR thermal stability”.

Staying with this experiment, now noted: C4-2 cells, compound 20 μM where stated, 10 nM DHT; listed as 6.
Consider `Cc1nsc(NC(=O)N2CCC(Sc3ccccc3C)CC2)n1` [Compound S2-6], for which the “DHT-induced (DHT-enhanced) AR thermal stability at 46° C.” value is listed as “inhibited DHT-induced AR stability”.

The same experiment, now with this note: S2-6 at 20 or 50 μM; S3-11 at 50 μM.
As for `Cc1nsc(NC(=O)N2CCC(Sc3ccccc3C)CC2)n1` [Compound S2-6], the “Maximum efficacy of DHT-enhanced AR thermal stabilization” value is “reduced the maximum efficacy of DHT-enhanced AR thermal stabilization”.

The experiment is the same for the next values; noted with them: b133, unit inferred; read-out: IC50, inhibition of DHT-induced AR stability at 46° C.
For `Cc1c(-c2ccccc2F)[nH]c2ccc(CNC(=O)c3ccc(CO)o3)cc12` [Compound S3-14], the IC50 came out at 9.46 µM.

The experiment is the same for the next values; noted with them: read-out: IC50, inhibition of DHT-induced AR stability at 46° C.
For the compound `Cc1nsc(NC(=O)N2CCC(Sc3ccccc3C)CC2)n1` [Compound S2-6], the IC50 turned out to be 4.1 µM.
`Cc1cccc2c(-c3ccc(O)c(F)c3)c[nH]c12` [Compound S3-17]: the IC50 was 9.46 µM.
On to `Cc1c(-c2ccccc2F)[nH]c2ccc(CNC(=O)CCc3cnccn3)cc12` [Compound S3-12], for which the half-maximal inhibitory concentration (IC50) is 52.6 µM.

The next experiment deals with UBE2C promoter-driven transcription in PC3-AR-V7-GFP cells. As to the kind of experiment: UBE2C promoter driven luciferase reporter assay in PC3-AR-V7-GFP cells. In kind it is cell-based. The settings on record: 24 h, 24 h exposure; read-out: IC50 in UBE2C-Luc AR-V7 reporter assay (potency range in words). The method, then: UBE2C Promoter Driven Luciferase Reporter Assay in PC3-AR-V7-GFP Cells: The pGL4.28-UBE2C 20bpX3 luciferase reporter plasmid (Xu et al., Cancer Res 2015, 75:3663-71) was provided by Dr. Yan Dong from Tulane University. FuGENE® HD transfection agent and the UBE2C-Luc plasmid (10 ng/well) were combined at a 3:1 (μL:μg) ratio, in Opti-MEM™ medium and incubated for 25 min at RT before being added to PC3-AR-V7-GFP cells that were suspended in RPMI 1640 (Gibco) media containing 1% L-glutamine (Invitrogen), and 10% fetal bovine serum (Gemini Bio-products). Bulk transfected PC3-AR-V7-GFP cells were seeded into white opaque 384-well assay plates (Greiner Bio-one, #781080) at a density of 3,000 cell per well in a volume of […] and incubated at 5% CO2, 37° C., and 95% humidity for 24 h. After 24 h, 10 μL of compounds were transferred to assay wells and the plates were returned to the incubator for an additional 24 h before 25 μL of BrightGlo® luciferase reagent (Promega) was added to the wells and the RLU's were captured on a SpectraMax® M5e plate reader (Molecular Devices LLC) as described previously (Ibid.).
As to `Cc1cccc2c(-c3ccc(O)c(F)c3)c[nH]c12` [Compound S3-17], the half-maximal inhibitory concentration (IC50) lay in the range of 10 to 100 µM.
For `Cc1c(-c2ccccc2F)[nH]c2ccc(CNC(=O)CCc3cnccn3)cc12` [Compound S3-12], the IC50 fell in the range of 10 to 100 µM.
Still for that read-out and setting: for `Cc1c(-c2ccccc2F)[nH]c2ccc(CNC(=O)c3ccc(CO)o3)cc12` [Compound S3-14] the value was 10 to 100 µM.

Staying with this experiment, now noted: PC3-AR-V7-GFP cells, constitutive; read-out: Inhibition AR-V7 UBE2C-reporter IC50.
In the case of `Cc1nsc(NC(=O)N2CCC(Sc3ccccc3C)CC2)n1` [Compound S2-6], the IC50 is approximately 15 µM.
On to `CNC(=O)c1ccc(-c2c[nH]c3c(C)cccc23)cc1` [Compound S3-21], for which the IC50 was more than 100 µM.
Consider `Cc1nc(N)cc(N2CCOc3c(O)cc(-c4ccccc4C)cc3C2)n1` [Compound S1-2], for which the IC50 was found to be 8.3 µM.

Another experiment has as its system DHT-induced full length AR PSA promoter-driven transcription in C4-2 CRPC cells. As to the kind of experiment: PSA-6.1 luciferase reporter assay in C4-2 CRPC cells. In kind it is cell-based. Particulars: C4-2, 24 h, 24 h exposure; read-out: IC50 in PSA-Luc reporter assay, C4-2 cells (potency range in words). As to the method:
Prostate Specific Antigen (PSA)-6.1 Luciferase Reporter Assay in the C4-2 CRPC Cell Line: The PSA-6.1-Luc luciferase reporter plasmid was provided by Dr. Zhou Wang in the Urology department of the University of Pittsburgh Cancer Institute. The PSA-6.1-Luc reporter is controlled by a fragment of the PSA promoter that contains at least three AREs. The PSA-6.1-Luc plasmid (12 ng/well) was combined with FuGENE® 6 transfection agent at a ratio 6:1 in SFM and incubated for 25 minutes at room temperature before being combined with C4-2 cells suspended in RPMI 1640 media containing 1% penicillin-streptomycin, 1% L-glutamine, and 10% FBS. Transfected cells were then seeded into white opaque 384-well assay plates (Greiner Bio-one, #781080) at 6,000 cells per well in a volume of 30 μL and incubated in 5% CO2, 37° C., and 95% humidity for 24 h.
Take `Cc1cccc2c(-c3ccc(O)c(F)c3)c[nH]c12` [Compound S3-17]: the IC50 lay within 1 to 10 µM.
On to `CNC(=O)c1ccc(-c2c[nH]c3c(C)cccc23)cc1` [Compound S3-21], for which the IC50 lay in the range of 10 to 100 µM.
`Cc1c(-c2ccccc2F)[nH]c2ccc(CNC(=O)CCc3cnccn3)cc12` [Compound S3-12]: the IC50 is 1 to 10 µM.

Still in this experiment, the particulars now being: C4-2 CRPC cells; read-out: Inhibition of DHT-induced full length AR PSA reporter IC50.
Turning to `Cc1nc(N)cc(N2CCOc3c(O)cc(-c4ccccc4C)cc3C2)n1` [Compound S1-2], the IC50 is less than 37 µM.

Staying with this experiment, now noted: b132; read-out: IC50, DHT-induced AR-mediated PSA promoter-driven transcription in C4-2 CRPC cells.
`CNC(=O)c1ccc(-c2c[nH]c3c(C)cccc23)cc1` [Compound S3-21]: the IC50 lay within 40 to 59 µM.
